Source: patent publication US20250361273A1, “METHODS AND COMPOSITIONS” (priority 2024, published 2025)
Where a SMILES comes first, the peptide text is derived from it. Bridges are numbered along the chain shown (N, C = ends). [ ]: non-standard residue; d: D form. Trp(6-F) = N[C@@H](Cc1c[nH]c2cc(F)ccc12)C(=O)O; dPhe(4-F) = N[C@H](Cc1ccc(F)cc1)C(=O)O; dAgb = N=C(N)NCC[C@@H](N)C(=O)O; Ac4c(3-oxa) = NC1(C(=O)O)COC1; Pen = CC(C)(S)[C@H](N)C(=O)O

Legend:
MC4R vs MC1R = test: Selectivity calculation MC4R vs MC1R (division of cAMP EC50 values); assay type: cell-based, human
Protocol: Peptides, including comparator molecules were tested by assays listed below. Selectivity between receptors was assessed in part using cAMP assays, which test the activity of peptides through the Gs pathway.
Selectivity between any two receptors was calculated by a division of the EC50 values between the two receptors, for each individual peptide.

MC4R = biological target: T1, MC4R (Homo sapiens, UniProt P32245); test: Bias calculation MC4R B-arrestin v MC4R cAMP; assay type: cell-based
T1 construct: host or cells: HEK293 (cAMP Hunter and PathHunter MC4R cell lines)
From the text: When comparing the selectivity of MC4R v MC1R, larger values indicate selectivity towards MC4R. When comparing the bias of MC4R B-arrestin v MC4R cAMP, larger values indicate bias towards B-arrestin.

MC1R = MC1R (Homo sapiens, UniProt Q01726); test: cAMP assay (human receptors), DiscoverX HitHunter, MC1R
MC1R, sequence (Q01726 whole entry): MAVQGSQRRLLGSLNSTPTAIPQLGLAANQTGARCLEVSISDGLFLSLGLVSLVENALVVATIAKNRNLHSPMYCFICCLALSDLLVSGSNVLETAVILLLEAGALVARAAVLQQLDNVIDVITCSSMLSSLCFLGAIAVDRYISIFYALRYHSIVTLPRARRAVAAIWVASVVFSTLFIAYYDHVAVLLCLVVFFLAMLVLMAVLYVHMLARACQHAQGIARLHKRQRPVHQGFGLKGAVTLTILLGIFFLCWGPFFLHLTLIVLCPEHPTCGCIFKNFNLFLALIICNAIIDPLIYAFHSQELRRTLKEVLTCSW
Protocol: The cAMP Assay (Human Receptors)
The in vitro functional activity of peptides was determined via DiscoverX Hit Hunter® cAMP assays, adhering to manufacturer-specified protocols. Assays involved the use of HEK293 cells, each of which were engineered to express MC1R or MC4R receptors.
In accordance with standard procedures, cAMP Hunter cell lines, extracted from freezer stocks, were cultured in 20 μL volumes in white-walled, 384-well microplates. These cells were incubated at 37° C. for an appropriate duration before commencing testing procedures. The identification of cAMP modulation was determined using the DiscoverX HitHunter assay.
For gauging the response from agonists, cells were incubated with a specific peptide, after which the media was aspirated and replaced with a solution of 10 μL of HBSS/10 mM Hepes, known as Assay Buffer. A subsequent dilution of sample stocks yielded a 4× sample in the assay buffer, which was then added to the cells in equal quantities, followed by a 30-minute incubation at 37° C. The ensuing concentration of DMSO, the vehicle, was maintained at 1%. […]
Compound activity was evaluated using a Chemical and Biological Information System software (CBIS) data analysis suite. The results described were calculated on an average of the two points per concentration generated by the assay described above. […]

T1 sequence (P32245 whole entry): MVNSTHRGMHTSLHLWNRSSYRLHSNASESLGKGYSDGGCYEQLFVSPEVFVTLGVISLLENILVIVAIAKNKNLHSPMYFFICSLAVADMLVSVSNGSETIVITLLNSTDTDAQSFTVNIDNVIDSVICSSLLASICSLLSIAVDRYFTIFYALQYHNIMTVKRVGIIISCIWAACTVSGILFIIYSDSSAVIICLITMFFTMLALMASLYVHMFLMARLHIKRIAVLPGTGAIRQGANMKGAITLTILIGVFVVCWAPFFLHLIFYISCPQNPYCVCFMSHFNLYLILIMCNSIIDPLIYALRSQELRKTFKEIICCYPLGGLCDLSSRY

| SMILES | Selectivity: MC4R v MC1R (MC4R vs MC1R; Compounds with Gln at X4, larger values indicate selectivity towards MC4R) | Selectivity: MC4R v MC1R (MC4R vs MC1R; Table 6 (A), larger values indicate selectivity towards MC4R) | Selectivity: MC4R v MC1R (MC4R vs MC1R; Table 6 (B), larger values indicate selectivity towards MC4R) | Selectivity: MC4R v MC1R (MC4R vs MC1R; Table 7, Aib(O-cyclic) at X3, larger values indicate selectivity towards MC4R) | Selectivity: MC4R v MC1R (MC4R vs MC1R; Table 14, Aib(O-cyclic) at X3, larger values indicate selectivity towards MC4R) | Selectivity: MC4R v MC1R (MC4R vs MC1R; Table 20, Gln at X4) | Selectivity: MC4R v MC1R (MC4R vs MC1R; calculated from cAMP functional screening, larger values indicate selectivity towards MC4R) | Bias: MC4R B-arrestin v MC4R cAMP (MC4R; Compounds with Gln at X4, larger values indicate bias towards B-arrestin) | Bias: MC4R B-arrestin v MC4R cAMP (MC4R; Table 6 (B), larger values indicate bias towards B-arrestin) | Bias: MC4R B-arrestin v MC4R cAMP (MC4R; Table 7, Aib(O-cyclic) at X3, larger values indicate bias towards B-arrestin) | Bias: MC4R B-arrestin v MC4R cAMP (MC4R; Table 20, Gln at X4) | EC50 (MC1R) [nM] |
| --- | --- | --- | --- | --- | --- | --- | --- | --- | --- | --- | --- | --- |
| CC(=O)N[C@H](CCNC(=N)N)C(=O)N[C@H]1CSSC(C)(C)[C@@H](C(N)=O)NC(=O)[C@H](Cc2c[nH]c3cc(F)ccc23)NC(=O)[C@H](CCCNC(=N)N)NC(=O)[C@@H](Cc2ccc(F)cc2)NC(=O)[C@H](CCC(N)=O)NC(=O)C2(COC2)NC1=O [Molecule 1158, (7R,12R,15S,18S,21R,24S)-7-((R)-2-acetamido-4-guanidinobutanamido)-24-(3-amino-3-oxopropyl)-15-((6-fluoro-1H-indol-3-yl)methyl)-21-(4-fluorobenzyl)-18-(3-guanidinopropyl)-11,11-dimethyl-6,14,17,20,23,26-hexaoxo-2-oxa-9,10-dithia-5,13,16,19,22,25-hexaazaspiro[3.22]hexacosane-12-carboxamide] (Ac-[dAgb]C[Ac4c(3-oxa)]Q[dPhe(4-F)]R[Trp(6-F)][Pen]-NH2; disulfide 2-8) | *** (*** denotes MC4R vs MC1R selectivity of about >7.40) | *** (*** denotes MC4R vs MC1R selectivity of about >7.40) | *** (*** denotes MC4R vs MC1R selectivity of about >7.40) | *** (*** denotes MC4R vs MC1R selectivity of about >7.40) | *** (*** denotes MC4R vs MC1R selectivity of about >7.40) | *** (*** denotes MC4R vs MC1R selectivity of about >7.40) | *** (*** denotes MC4R vs MC1R selectivity of about >7.40) | + (+ denotes MC4R B-arrestin v MC4R cAMP bias having a range of >0.00 to ≤2.00) | + (+ denotes MC4R B-arrestin v MC4R cAMP bias having a range of >0.00 to ≤2.00) | + (+ denotes MC4R B-arrestin v MC4R cAMP bias having a range of >0.00 to ≤2.00) | + (+ denotes MC4R B-arrestin v MC4R cAMP bias having a range of >0.00 to ≤2.00) | – |
| CCCC[C@H](NC(C)=O)C(=O)N[C@H]1CC(=O)NCCCC[C@@H](C(=O)O)NC(=O)[C@H](Cc2c[nH]c3ccccc23)NC(=O)[C@H](CCCN=C(N)N)NC(=O)[C@@H](Cc2ccccc2)NC(=O)[C@H](Cc2cnc[nH]2)NC1=O [Bremelanotide] | – | – | – | – | – | – | – | – | – | – | – | 0.17 |
